Results on 30 compounds are retold here after patent publication US20230087118A1, “IMIDAZO[1,2-a][sequence] DERIVATIVES AND THEIR USE IN THE TREATMENT OF DISEASE” (priority 2019, published 2023).

For orientation: IC50 means the concentration at which inhibition is half-maximal. A high value points to lower potency.

Molecules are shown by their SMILES. Counter-ions that a name gives are not always drawn.

For the first experiment, the target named is T1, IRAK4 (Homo sapiens, UniProt Q9NWZ3).
T1 sequence (Q9NWZ3 1-460): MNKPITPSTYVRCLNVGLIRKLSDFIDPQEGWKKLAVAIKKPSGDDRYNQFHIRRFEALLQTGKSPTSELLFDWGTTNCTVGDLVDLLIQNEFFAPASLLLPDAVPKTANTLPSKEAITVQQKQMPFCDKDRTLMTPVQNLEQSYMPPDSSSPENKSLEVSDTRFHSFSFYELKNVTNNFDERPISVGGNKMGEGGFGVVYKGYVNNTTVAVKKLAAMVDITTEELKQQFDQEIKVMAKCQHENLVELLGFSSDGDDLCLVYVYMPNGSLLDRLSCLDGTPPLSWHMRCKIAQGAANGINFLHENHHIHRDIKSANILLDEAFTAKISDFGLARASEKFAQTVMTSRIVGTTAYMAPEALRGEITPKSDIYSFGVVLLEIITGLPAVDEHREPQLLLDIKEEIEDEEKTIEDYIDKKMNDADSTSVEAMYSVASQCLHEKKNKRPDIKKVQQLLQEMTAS
In words: biochemical.
Conditions: not given
Consider `CC(C)Oc1cc2nc(C3COCCO3)cn2cc1C(=O)Nc1cccc(C(F)F)n1` (stereo not drawn) [Example 330, N-(6-(difluoromethyl)pyridin-2-yl)-2-(1,4-dioxan-2-yl)-7-isopropoxy-imidazo[1,2-a]pyridine-6-carboxamide], for which half-maximal inhibition (IC50) was put at 0.0002 µM. This lies in the sub-nanomolar range. Still for that read-out and setting: in the case of `CC(C)Oc1cc2nc(C34COC(C3)C4)cn2cc1C(=O)Nc1cccc(C(F)F)n1` [Example 544, 2-(2-Oxabicyclo[2.1.1]hexan-4-yl)-N-(6-(difluoromethyl)pyridin-2-yl)-7-isopropoxyimidazo[1,2-a]pyridine-6-carboxamide] it was 0.0002 µM. For the compound `CC12CCC(c3cn4cc(C(=O)Nc5cnn6cccnc56)c(OC5CCC5)cc4n3)(CO1)C2` (stereo not drawn) [Example 425, 7-Cyclobutoxy-2-(1-methyl-2-oxabicyclo[2.2.1]heptan-4-yl)-N-(pyrazolo[1,5-a]pyrimidin-3-yl)imidazo[1,2-a]pyridine-6-carboxamide], the midpoint of inhibition, the IC50, lay at 0.0004 µM.

In turn, `Cn1ccc(NC(=O)c2cn3cc(C45COC(C)(C4)C5)nc3c(OC3CCC3)n2)n1` [Example 346, 8-Cyclobutoxy-N-(1-methyl-1H-pyrazol-3-yl)-2-(1-methyl-2-oxabicyclo[2.1.1]hexan-4-yl)imidazo[1,2-a]pyrazine-6-carboxamide] had an IC50 of 0.0085 µM. In turn, `CC(Oc1cc2nc(C34COC(C)(C3)C4)cn2cc1C(=O)Nc1cccc(C(F)F)n1)C(F)(F)F` (single isomer, unassigned) [Example 619] returned an IC50 of 0.0001 µM.

`CC(C)Oc1cc2nc(C34CCC(C3)OC4)cn2cc1C(=O)Nc1cnn2cccnc12` (stereo not drawn) [Example 416, 2-(2-Oxabicyclo[2.2.1]heptan-4-yl)-7-isopropoxy-N-(pyrazolo[1,5-a]pyrimidin-3-yl)imidazo[1,2-a]pyridine-6-carboxamide] returned an IC50 of 0.0006 µM. With `CC(C)Oc1c(C(=O)Nc2cccc(C(F)F)n2)cn2cc(C34COC(CF)(C3)C4)nc2c1F` [Example 269, N-(6-(Difluoromethyl)pyridin-2-yl)-8-fluoro-2-(1-(fluoromethyl)-2-oxabicyclo[2.1.1]hexan-4-yl)-7-isopropoxyimidazo[1,2-a]pyridine-6-carboxamide], the midpoint of inhibition, the IC50, lay at 0.0012 µM. Turning to `Cc1cccc(NC(=O)c2cn3cc(C45COC(C)(C4)C5)nc3nc2OC(C)C)n1` [Example 355, 7-Isopropoxy-2-(1-methyl-2-oxabicyclo[2.1.1]hexan-4-yl)-N-(6-methylpyridin-2-yl)imidazo[1,2-a]pyrimidine-6-carboxamide], the 50% inhibitory concentration (IC50) is 0.0016 µM. The same measure, in the same setting: the value for `CC12CC(c3cn4cc(C(=O)Nc5ccn(C(F)(F)F)n5)c(OC5CCC5)cc4n3)(CO1)C2` [Example 521, 7-Cyclobutoxy-2-(1-methyl-2-oxabicyclo[2.1.1]hexan-4-yl)-N-(1-(trifluoromethyl)-1H-pyrazol-3-yl)imidazo[1,2-a]pyridine-6-carboxamide] was 0.0118 µM; that for `Cn1ccc(NC(=O)c2cn3cc(C45COC(C)(C4)C5)nc3cc2OC2CC3(CC3)C2)n1` [Example 550] was 0.002 µM.

In turn, `CC(C)Oc1nc2nc(C34COC(CF)(C3)C4)cn2cc1C(=O)Nc1cnn2cccnc12` [Example 563, 2-(1-(Fluoromethyl)-2-oxabicyclo[2.1.1]hexan-4-yl)-7-isopropoxy-N-(pyrazolo[1,5-a]pyrimidin-3-yl)imidazo[1,2-a]pyrimidine-6-carboxamide] showed an IC50 of 0.0005 µM. This IC50 is about 4-fold lower than that of the compound before. The same measure, in the same setting: the value for `CC12CC(c3cn4cc(C(=O)Nc5cccn(C(F)F)c5=O)c(OCCF)cc4n3)(CO1)C2` [Example 438, N-(1-(difluoromethyl)-2-oxo-1,2-dihydropyridin-3-yl)-7-(2-fluoroethoxy)-2-(1-methyl-2-oxabicyclo[2.1.1]hexan-4-yl)imidazo[1,2-a]pyridine-6-carboxamide] was 0.0015 µM.

For the compound `COC12CC(c3cn4cc(C(=O)Nc5cccc(C(F)F)n5)c(OC(C)C)cc4n3)(C1)C2` [Example 227], the half-inhibitory concentration (IC50) was 0.0003 µM. The same measure, in the same setting: in the case of `C[C@H](Oc1cc2nc(C34COC(C)(C3)C4)cn2cc1C(=O)Nc1cccc(C(F)F)n1)C1CC1` (single isomer, unassigned) [Example 656] it was 0.0002 µM; in that of `Cc1cc(-n2ccc(NC(=O)c3cn4cc(C56CCC(C)(C5)OC6)nc4cc3OC3CCC3)n2)ccn1` (stereo not drawn) [Example 531, 7-Cyclobutoxy-2-(1-methyl-2-oxabicyclo[2.2.1]heptan-4-yl)-N-(1-(2-methylpyridin-4-yl)-1H-pyrazol-3-yl)imidazo[1,2-a]pyridine-6-carboxamide], 0.0008 µM; in that of `CCOc1nc(C(=O)Nc2cccnc2OC(F)F)cn2cc(C34COC(C)(C3)C4)nc12` [Example 492, N-(2-(difluoromethoxy)pyridin-3-yl)-8-ethoxy-2-(1-methyl-2-oxabicyclo[2.1.1]hexan-4-yl)imidazo[1,2-a]pyrazine-6-carboxamide], 0.0016 µM. On the same count and under the same terms, the value for `CC(C)Oc1nc(C(=O)Nc2ccn(C)n2)cn2cc([C@]34CC[C@](C)(C3)OC4)nc12` (single isomer, unassigned) [Example 593] was 0.0065 µM; that for `CC(C)Oc1nc2nc(C34COC(C)(C3)C4)cn2cc1C(=O)Nc1cccc2ncnn12` [Example 410, N-([1,2,4]triazolo[1,5-a]pyridin-5-yl)-7-isopropoxy-2-(1-methyl-2-oxabicyclo[2.1.1]hexan-4-yl)imidazo[1,2-a]pyrimidine-6-carboxamide] was 0.0002 µM; that for `CC(C)Oc1nc2nc(C34COC(C)(C3)C4)cn2cc1C(=O)Nc1snc2cccnc12` [Example 376, 7-Isopropoxy-N-(isothiazolo[4,3-b]pyridin-3-yl)-2-(1-methyl-2-oxabicyclo[2.1.1]hexan-4-yl)imidazo[1,2-a]pyrimidine-6-carboxamide] was 0.0018 µM. Consider `CC(C)Oc1nc(C(=O)Nc2cnn3cccnc23)cn2cc(C34COC(CF)(C3)C4)nc12` [Example 340, 2-(1-(Fluoromethyl)-2-oxabicyclo[2.1.1]hexan-4-yl)-8-isopropoxy-N-(pyrazolo[1,5-a]pyrimidin-3-yl)imidazo[1,2-a]pyrazine-6-carboxamide], for which the IC50 worked out at 0.0067 µM. The same measure, in the same setting: the value for `CC12CC(c3cn4cc(C(=O)Nc5ccn(C6CCC6)n5)c(OC5CCC5)cc4n3)(CO1)C2` [Example 524, 7-Cyclobutoxy-N-(1-cyclobutyl-1H-pyrazol-3-yl)-2-(1-methyl-2-oxabicyclo[2.1.1]hexan-4-yl)imidazo[1,2-a]pyridine-6-carboxamide] was 0.0111 µM. The same measure, in the same setting: the value for `CC(C)Oc1c(C(=O)Nc2cccc(C(F)F)n2)cn2cc(C34COC(C)(C3)C4)nc2c1F` [Example 217] was 0.0017 µM; that for `CC12CCC(c3cn4cc(C(=O)Nc5ccn(CC#N)n5)c(OC5CCC5)cc4n3)(CO1)C2` (stereo not drawn) [Example 532, N-(1-(cyanomethyl)-1H-pyrazol-3-yl)-7-cyclobutoxy-2-(1-methyl-2-oxabicyclo[2.2.1]heptan-4-yl)imidazo[1,2-a]pyridine-6-carboxamide] was 0.0029 µM.

The same experiment, now with this note: IRAK4 Biochemical Assay (1 mM ATP, 2 h) IC50 (μM), 1 mM ATP, 2 h, 100 pM IRAK4.
For `CCOc1nc(C(=O)Nc2cc(F)cn(C)c2=O)cn2cc(C34CCC(C)(C3)OC4)nc12` (stereo not drawn) [Example 277, 8-Ethoxy-N-(5-fluoro-1-methyl-2-oxo-1,2-dihydropyridin-3-yl)-2-(1-methyl-2-oxabicyclo[2.2.1]heptan-4-yl)imidazo[1,2-a]pyrazine-6-carboxamide trifluoroacetate], half-maximal inhibition (IC50) was put at 0.0061 µM. On the same count and under the same terms, in the case of `O=C(Nc1cccc(C(F)F)n1)c1cn2cc(C3CC3)nc2cc1OCC1CC2CCC1O2` (stereo not drawn) [Example 470, 7-((7-Oxabicyclo[2.2.1]heptan-2-yl)methoxy)-2-cyclopropyl-N-(6-(difluoromethyl)pyridin-2-yl)imidazo[1,2-a]pyridine-6-carboxamide] it was 0.0015 µM; in that of `CC(C)Oc1nc2nc(C34COC(C)(C3)C4)cn2cc1C(=O)Nc1cnn2cccnc12` [Example 307, 7-Isopropoxy-2-(1-methyl-2-oxabicyclo[2.1.1]hexan-4-yl)-N-(pyrazolo[1,5-a]pyrimidin-3-yl)imidazo[1,2-a]pyrimidine-6-carboxamide], 0.0005 µM. Still for that read-out and setting: in the case of `O=C(Nc1cccc(C(F)F)n1)c1cc(OC(F)F)c2nc(C3CCOCC3)cn2c1` [Example 63, 8-(Difluoromethoxy)-N-(6-(difluoromethyl)pyridin-2-yl)-2-(tetrahydro-2H-pyran-4-yl)imidazo[1,2-a]pyridine-6-carboxamide trifluoroacetate] it was 0.0078 µM. As for `CC12CC(c3cn4cc(C(=O)Nc5cccc(C(F)F)n5)c(OC(F)F)cc4n3)(CO1)C2` [Example 333, 7-(Difluoromethoxy)-N-(6-(difluoromethyl)pyridin-2-yl)-2-(1-methyl-2-oxabicyclo[2.1.1]hexan-4-yl)imidazo[1,2-a]pyridine-6-carboxamide trifluoroacetate], the IC50 amounted to 0.0052 µM. Same read-out and setting: the value for `O=C(Nc1cccc(C(F)F)n1)c1cn2cc(C3CC3)nc2cc1OC1CCOCC1` [Example 473, 2-Cyclopropyl-N-(6-(difluoromethyl)pyridin-2-yl)-7-((tetrahydro-2H-pyran-4-yl)oxy)imidazo[1,2-a]pyridine-6-carboxamide] was 0.0064 µM.

With `CC(C)Oc1cc2nc(C(C)(F)F)cn2cc1C(=O)Nc1cccc(C(F)F)n1` [Example 98, 2-(1,1-Difluoroethyl)-N-(6-(difluoromethyl)pyridin-2-yl)-7-isopropoxyimidazo[1,2-a]pyridine-6-carboxamide], 0.0038 µM corresponded to half-maximal inhibition (IC50).
